{"source": "patent EP0358033B1", "about": "“Radical polymerizable compositions and their use” (Henkel Kommanditgesellschaft auf Aktien, priority 1988, dated 1990)", "origin": "cited, not measured here"}
{"conditions": "free acid"}
{"smiles": "O=C(O)C(Cl)Cl", "note": "[Dichloressigsäure]", "pKS-Wert": "~1,3"}
{"smiles": "CC(=O)O", "note": "[Essigsäure]", "pKS-Wert": "~4,76"}
{"smiles": "O=C(O)C(Cl)(Cl)Cl", "note": "[Trichloressigsäure]", "pKS-Wert": "~0,6"}
